Some test systems named below: CAKI-1; SNB-75; RXF 393; UACC-257; SNB-19; T47D; NCI-H226; SF-295; OVCAR-3; CCRF-CEM; U-251; SW-620; 786-0; M14; NCI-H522; OVCAR-5; IGROV-1; SF-539; SK-OV-3; MCF7.
Test in all cases: NCI-60 cell line screen, 48 h

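Where inhibition never reached the appropriate level, the endpoint shown equals the highest concentration tested. Otherwise, values were interpolated linearly from a five-concentration, 48-hour dose response in 96-well plates. GI50 = concentration required for 50% inhibition of growth.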 Calls of active or inactive are those of the source. No stated cut-off is given here; in the data, active = GI50 up to about 1.1 µM and inactive = higher. Where a SMILES comes first, the peptide text is derived from it. The star is where a group is joined. ONb = O=[N+]([O-])c1ccc(CO*)cc1; Boc = CC(C)(C)OC(=O)* Where only a bound is given, the exact number is not on record here.

Consider `O=C(NCCO)c1ccc(Cl)cc1`, for which the GI50 with CAKI-1, with SNB-75, with RXF 393, with UACC-257, with SNB-19 and with T47D was > 100 µM (inactive) in each case. The GI50 is > 100 µM (inactive) with NCI-H226; > 100 µM (inactive) in the assay on SF-295; > 100 µM (inactive) in the assay on OVCAR-3; 26.1 µM (inactive) in the assay with CCRF-CEM; > 100 µM (inactive) in the assay on U-251; > 100 µM (inactive) in the assay with SW-620. Besides, the GI50 with 786-0, with M14, in the assay with NCI-H522, in the assay with OVCAR-5 and in the assay on IGROV-1 was > 100 µM (inactive) in each case.
For `Clc1cc(N/N=C(/c2ccccc2)c2ncccn2)ncn1`, the GI50 in the assay on SF-539 was 21.9 µM (inactive); in the assay on SK-OV-3, 19.1 µM (inactive); in the assay on CAKI-1 it was 7.96 µM (inactive); with SNB-75, 26.1 µM (inactive); with RXF 393 it was 19.8 µM (inactive); in the assay on UACC-257, 20.9 µM (inactive). Also, the GI50 in the assay with SNB-19 is 60.7 µM (inactive); in the assay with NCI-H226, 56.4 µM (inactive); with SF-295 it was 24.6 µM (inactive); in the assay on OVCAR-3, 20.2 µM (inactive); in the assay with MCF7, 14.8 µM (inactive); with CCRF-CEM, 4.53 µM (inactive). Moreover, the GI50 with U-251 was 31.8 µM (inactive); in the assay on SW-620, 7.18 µM (inactive); in the assay with 786-0 it was 21.7 µM (inactive); with M14, 29 µM (inactive); in the assay on NCI-H522 it was 2.56 µM (inactive); with OVCAR-5, 85.5 µM (inactive). Further, the GI50 in the assay with IGROV-1 was 17.5 µM (inactive).
For the compound `NCCC1(N)CCNCC1`, the GI50 is > 100 µM (inactive) with SF-539; > 100 µM (inactive) in the assay on SK-OV-3; > 100 µM (inactive) in the assay on CAKI-1; 13.7 µM (inactive) in the assay on SNB-75; > 100 µM (inactive) in the assay on RXF 393; > 100 µM (inactive) with UACC-257. Further, the GI50 with SNB-19, in the assay on T47D, with NCI-H226, in the assay with SF-295, with CCRF-CEM and in the assay with U-251 was > 100 µM (inactive) throughout. In addition, the GI50 in the assay on SW-620, in the assay on 786-0, in the assay with M14, in the assay with NCI-H522, in the assay with OVCAR-5 and in the assay with IGROV-1 was > 100 µM (inactive) throughout.
Turning to `Cc1ccc(NC(=O)CC(=O)N2N=C(c3ccccc3)C(/N=N/c3ccc(S(=O)(=O)CCOS(=O)(=O)O)cc3)C2=O)cc1` (stereo not drawn), the GI50 with SF-539, in the assay with CAKI-1, with SNB-75, with RXF 393, with UACC-257 and with SNB-19 was > 100 µM (inactive) in each case. In addition, the GI50 with NCI-H226 is > 100 µM (inactive); with SF-295, > 100 µM (inactive); with OVCAR-3, > 100 µM (inactive); in the assay on MCF7, 65.9 µM (inactive); in the assay with CCRF-CEM, > 100 µM (inactive); in the assay with U-251, 41.8 µM (inactive). In addition, the GI50 was > 100 µM (inactive) in the assay on SW-620; 60.5 µM (inactive) in the assay on 786-0; > 100 µM (inactive) with M14; 58.6 µM (inactive) in the assay on NCI-H522; > 100 µM (inactive) with OVCAR-5; 41.6 µM (inactive) in the assay with IGROV-1.
With `COc1cccc2c1C(=O)c1c(O)c3c(c(O)c1C2=O)C[C@@](O)(C(C)O)C[C@@H]3OC1CC(N)C(O)C(C)O1` (stereo partly drawn), the GI50 in the assay on SF-539 is 0.869 µM (active); in the assay on SK-OV-3 it was 2.72 µM (inactive); in the assay on CAKI-1, 0.408 µM (active); in the assay on SNB-75, 0.00982 µM (active); with RXF 393, 1.47 µM (inactive); in the assay with UACC-257 it was 1.42 µM (inactive). For the same compound, the GI50 was 0.883 µM (active) with SNB-19; 0.607 µM (active) with NCI-H226; 1.26 µM (inactive) in the assay on SF-295; 2.4 µM (inactive) with OVCAR-3; 0.738 µM (active) in the assay on MCF7; 0.148 µM (active) in the assay with CCRF-CEM. Moreover, the GI50 with U-251 is 0.885 µM (active); with SW-620 it was 1.05 µM (active); in the assay with 786-0 it was 0.644 µM (active); in the assay with M14, 3.02 µM (inactive); in the assay with NCI-H522, 0.57 µM (active); in the assay on OVCAR-5, 3.3 µM (inactive). Further, the GI50 in the assay with IGROV-1 was 2.2 µM (inactive).
For `Cc1oc2c(c1C)S(=O)(=O)C(C#N)=C(c1ccccc1)N2`, the GI50 with SF-539, with SK-OV-3, in the assay with CAKI-1, in the assay on SNB-75, in the assay with UACC-257 and with SNB-19 was > 100 µM (inactive) in each case. In addition, the GI50 in the assay on T47D, in the assay with NCI-H226, in the assay on SF-295, with OVCAR-3, with MCF7 and with U-251 was > 100 µM (inactive) each time. In addition, the GI50 in the assay on SW-620, with 786-0, in the assay with M14, in the assay on NCI-H522, in the assay with OVCAR-5 and with IGROV-1 was > 100 µM (inactive) throughout.
Turning to `CN(c1ccc(Cl)cc1)S(=O)(=O)c1cccc([N+](=O)[O-])c1`, the GI50 in the assay with SF-539 was 66.4 µM (inactive); with SK-OV-3, > 100 µM (inactive); with CAKI-1, 64.6 µM (inactive); with SNB-75, 56.5 µM (inactive); in the assay with RXF 393 it was 45.4 µM (inactive); in the assay with UACC-257, > 100 µM (inactive). Moreover, the GI50 with SNB-19 is > 100 µM (inactive); with NCI-H226, 53.8 µM (inactive); in the assay with SF-295, > 100 µM (inactive); with OVCAR-3, 55.3 µM (inactive); with MCF7, 56.1 µM (inactive); in the assay with CCRF-CEM, 27.5 µM (inactive). Besides, the GI50 in the assay on U-251 is 64.4 µM (inactive); with SW-620, 70.5 µM (inactive); with 786-0 it was > 100 µM (inactive); in the assay on M14, 43.4 µM (inactive); in the assay on NCI-H522, 65.5 µM (inactive); in the assay on OVCAR-5, 87.3 µM (inactive). Besides, in the assay on IGROV-1, the GI50 is > 100 µM (inactive).
`CC(C)(C)n1c(=O)n(-c2ccccc2)n(C(C)(C)C)c1=O`: the GI50 with SF-539 is > 100 µM (inactive); in the assay on SK-OV-3, > 100 µM (inactive); with CAKI-1, > 100 µM (inactive); in the assay with SNB-75 it was 63.1 µM (inactive); in the assay with RXF 393, > 100 µM (inactive); in the assay with UACC-257 it was > 100 µM (inactive). The GI50 in the assay with SNB-19, in the assay on NCI-H226, in the assay with SF-295, with OVCAR-3, in the assay with MCF7 and with CCRF-CEM was > 100 µM (inactive) in each case. Besides, the GI50 in the assay with U-251, with SW-620, in the assay with 786-0, in the assay with M14, in the assay on OVCAR-5 and with IGROV-1 was > 100 µM (inactive) in each case.
As for `O=[N+]([O-])c1ccc2nc(Nc3ccccc3)c(Nc3ccccc3)nc2c1`, the GI50 in the assay with SF-539 was 1.58 µM (inactive); in the assay with SK-OV-3 it was 0.787 µM (active); with CAKI-1, 0.802 µM (active); with SNB-75, 2 µM (inactive); in the assay with RXF 393, 2.57 µM (inactive); with UACC-257 it was 2.15 µM (inactive). Also, the GI50 in the assay with SNB-19 was 1.15 µM (inactive); with T47D, 2.63 µM (inactive); in the assay on NCI-H226, 2.4 µM (inactive); in the assay with SF-295 it was 1.14 µM (inactive); with CCRF-CEM it was 0.875 µM (active); in the assay on U-251, 0.512 µM (active). Besides, the GI50 with SW-620 was 1.56 µM (inactive); in the assay on 786-0, 1.49 µM (inactive); in the assay with NCI-H522 it was 0.369 µM (active); with OVCAR-5, 2.64 µM (inactive); in the assay on IGROV-1 it was 1.58 µM (inactive).
On to `CC(C)CC(NC(=O)OC(C)(C)C)C(=O)NC(CCC(=O)OCc1ccc([N+](=O)[O-])cc1)C(=O)OCc1ccc([N+](=O)[O-])cc1` (stereo not drawn) (Boc-Leu-Glu(ONb)-ONb; configuration not given here), for which the GI50 in the assay with SF-539 is 18.7 µM (inactive); in the assay with CAKI-1, > 100 µM (inactive); in the assay on SNB-75, 16.6 µM (inactive); in the assay with UACC-257, 43.8 µM (inactive); in the assay with SNB-19, > 100 µM (inactive); with T47D it was 92.3 µM (inactive). For the same compound, the GI50 was 43.4 µM (inactive) with SF-295; 26.6 µM (inactive) in the assay on OVCAR-3; > 10 µM (inactive) with MCF7; 19.8 µM (inactive) in the assay on CCRF-CEM; 27.6 µM (inactive) in the assay with U-251; 50.9 µM (inactive) in the assay on SW-620. The GI50 was 26.1 µM (inactive) in the assay with 786-0; 26.2 µM (inactive) in the assay with M14; 4.57 µM (inactive) in the assay on NCI-H522; > 100 µM (inactive) with OVCAR-5; 24.4 µM (inactive) in the assay with IGROV-1.
Consider `NCCS(=O)(=O)O` [TAURINE], for which the GI50 in the assay on SF-539, with CAKI-1, in the assay on SNB-75, in the assay on UACC-257, with SNB-19 and in the assay with T47D was > 100 µM (inactive) each time. In addition, the GI50 in the assay on NCI-H226, in the assay on SF-295, in the assay with OVCAR-3, in the assay with MCF7, with CCRF-CEM and with U-251 was > 100 µM (inactive) in each case. Besides, the GI50 with SW-620, with 786-0, with M14, in the assay with NCI-H522, in the assay with OVCAR-5 and in the assay with IGROV-1 was > 100 µM (inactive) each time.

Values taken from ChEMBL document CHEMBL1201862, “PubChem BioAssay data set” (2004).
